Among the test systems are HOP-62 NSCLC; LOX IMVI melanoma; NCI-H522 lung; TK-10 renal; OVCAR-8 ovarian; EKVX NSCLC; T-47D breast; SF-539 CNS; MOLT-4 leukemia; A498 renal.
Common to all, as to assay: growth of human tumour cells (NCI), 48 h

Values joined by “and” are separate entries in the source; they are usually repeats but may differ in a detail not shown here. Equal values may be shown once.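 In this assay, cells in 96-well plates receive the compound at five concentrations for 48 hours. Endpoints are linearly interpolated between the surrounding concentrations. GI50 marks 50% less growth. At the TGI there is no net growth.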

Take `COc1ccc(CC(C)NCC(O)c2ccc(O)c(NC=O)c2)cc1` (stereo not given): the TGI in the assay on HOP-62 NSCLC, in the assay with LOX IMVI melanoma, in the assay on NCI-H522 lung, in the assay on TK-10 renal, with OVCAR-8 ovarian and in the assay with EKVX NSCLC was > 100 µM in each case. Besides, the TGI with T-47D breast, in the assay with SF-539 CNS, in the assay with MOLT-4 leukemia and in the assay with A498 renal was > 100 µM in each case.

Take `COc1ccc(-c2nn3ncccc3c2-c2ccnc(Nc3ccc(F)c(F)c3)n2)cc1`: the GI50 in the assay on HOP-62 NSCLC was 14.1 µM; in the assay on LOX IMVI melanoma, 7.42 µM; with NCI-H522 lung, 8.18 µM; in the assay on TK-10 renal, 14.3 µM; in the assay with OVCAR-8 ovarian, 11.2 µM; in the assay on EKVX NSCLC, 5.06 µM. For the same compound, the GI50 with T-47D breast was 6.42 µM; with SF-539 CNS, > 19.2 µM; in the assay with MOLT-4 leukemia it was 8.45 µM; in the assay with A498 renal it was 3.96 µM. Besides, the TGI in the assay with HOP-62 NSCLC was > 25 µM; with LOX IMVI melanoma, > 25 µM; with NCI-H522 lung it was > 23.6 µM; with TK-10 renal, > 25 µM; with OVCAR-8 ovarian it was > 25 µM; with EKVX NSCLC it was > 22.7 µM. The TGI in the assay on T-47D breast was > 25 µM; in the assay with SF-539 CNS, > 25 µM; in the assay on MOLT-4 leukemia, > 25 µM; with A498 renal it was > 23 µM.

In the case of `COc1cccc2c1C(=O)c1c(O)c3c(c(O)c1C2=O)C[C@@](O)(/C(C)=N/NC(=O)c1cccc([N+](=O)[O-])c1)C[C@@H]3OC1CC(N)C(O)C(C)O1` (stereo not given in full), the GI50 is 0.283 µM with HOP-62 NSCLC; 0.146 µM in the assay with LOX IMVI melanoma; 0.494 µM in the assay with NCI-H522 lung; 0.896 µM in the assay with TK-10 renal; 0.366 µM in the assay with OVCAR-8 ovarian; 0.495 µM with EKVX NSCLC. Moreover, the GI50 is 0.176 µM with T-47D breast, 0.21 µM in the assay on SF-539 CNS, 0.0524 µM in the assay on MOLT-4 leukemia and 0.564 µM in the assay on A498 renal. Further, the TGI was determined as 4.41 µM in the assay on HOP-62 NSCLC; 15.4 µM in the assay on LOX IMVI melanoma; 5.96 µM in the assay with NCI-H522 lung; 10.2 µM in the assay on TK-10 renal; 21 µM in the assay with OVCAR-8 ovarian; 4.66 µM with EKVX NSCLC. The TGI with T-47D breast is 1.26 µM; in the assay with SF-539 CNS it was 1.22 µM; in the assay on MOLT-4 leukemia, 4.9 µM; in the assay with A498 renal, 2.23 µM.

Turning to `COc1cc2c(cc1OCCCCCOc1ccc(-c3nc4ccccc4s3)cc1)N=C[C@@H]1CCCN1C2=O`, the GI50 in the assay with HOP-62 NSCLC was 1.62 µM; in the assay with LOX IMVI melanoma, 0.983 µM; in the assay on NCI-H522 lung, 1.72 µM; in the assay on TK-10 renal, 8.48 µM; in the assay on OVCAR-8 ovarian, 3.13 µM; in the assay with EKVX NSCLC, 5.66 µM. Further, the GI50 was 0.799 µM in the assay on T-47D breast, 1.58 µM in the assay with SF-539 CNS, 3.5 µM in the assay with MOLT-4 leukemia and 5.29 µM with A498 renal. Moreover, the TGI was 7.59 µM in the assay on HOP-62 NSCLC; 4.37 µM in the assay on LOX IMVI melanoma; 13.7 µM with NCI-H522 lung; > 57.7 µM with TK-10 renal; 21.1 µM with OVCAR-8 ovarian; > 21.2 µM in the assay on EKVX NSCLC. The TGI in the assay on T-47D breast is 4.11 µM; with SF-539 CNS, 6.09 µM; in the assay on MOLT-4 leukemia, 20 µM; with A498 renal, 11.5 µM.

Consider `O=c1oc2ccccc2cc1P(=O)(O)O`, for which the TGI in the assay with HOP-62 NSCLC, with LOX IMVI melanoma, with NCI-H522 lung, in the assay with TK-10 renal, with OVCAR-8 ovarian and in the assay on EKVX NSCLC was > 100 µM in each case. In addition, the TGI with T-47D breast, with SF-539 CNS, in the assay with MOLT-4 leukemia and in the assay with A498 renal was > 100 µM throughout.

In the case of `Clc1ccc(NCNC2Nc3ccccc3N2)cc1Cl`, the TGI with HOP-62 NSCLC was > 100 µM; with LOX IMVI melanoma, > 100 µM; in the assay on NCI-H522 lung, 56.2 µM; with TK-10 renal, > 100 µM; in the assay with OVCAR-8 ovarian it was 46.6 µM; with EKVX NSCLC it was > 100 µM. The TGI in the assay with T-47D breast, in the assay with SF-539 CNS, in the assay on MOLT-4 leukemia and in the assay on A498 renal was > 100 µM throughout.

Consider `CC(C)(C)CNCCO`, for which the TGI in the assay with HOP-62 NSCLC, with LOX IMVI melanoma, with NCI-H522 lung, with TK-10 renal, with OVCAR-8 ovarian and in the assay on EKVX NSCLC was > 100 µM throughout. The TGI was > 100 µM in the assay on T-47D breast, > 100 µM in the assay on SF-539 CNS, > 45.7 µM with MOLT-4 leukemia and > 100 µM with A498 renal.

For `CCCCCCCCCCCC1=NC(C)(C)CN1C(C)C`, the GI50 in the assay on HOP-62 NSCLC is 4.35 µM; in the assay on LOX IMVI melanoma, 2.32 µM; in the assay with NCI-H522 lung, 2.65 µM; in the assay with TK-10 renal, 4.02 µM; in the assay with OVCAR-8 ovarian, 4.35 µM; in the assay with EKVX NSCLC it was 6.55 µM. The GI50 with T-47D breast is 2.9 µM; with SF-539 CNS, 2.14 µM; in the assay with MOLT-4 leukemia, 2.67 µM; with A498 renal it was 4.78 µM. Also, the TGI in the assay on HOP-62 NSCLC was found to be 16.2 µM; with LOX IMVI melanoma it was 6.85 µM; in the assay on NCI-H522 lung, 10.8 µM; with TK-10 renal, 16.1 µM; with OVCAR-8 ovarian, 16.3 µM; in the assay with EKVX NSCLC, 21.1 µM. The TGI in the assay on T-47D breast amounted to 8.73 µM; in the assay with SF-539 CNS, 4.41 µM; in the assay with MOLT-4 leukemia it was 7.44 µM; with A498 renal it was 19.3 µM.

As for `C[C@]12CC[C@H]3[C@@H](CCC4=CC(=O)CC[C@@]43C)[C@]1(O)CC[C@]2(O)C(=O)CO`, the TGI with HOP-62 NSCLC, with LOX IMVI melanoma, in the assay with NCI-H522 lung, in the assay with TK-10 renal, in the assay with OVCAR-8 ovarian and in the assay on EKVX NSCLC was > 100 µM throughout. Further, the TGI in the assay with T-47D breast, in the assay with SF-539 CNS, with MOLT-4 leukemia and with A498 renal was > 100 µM in each case.

As for `COc1ccc2c(c1[N+](=O)[O-])CC[C@@H]1[C@@H]2CC[C@]2(C)C(=O)CC[C@@H]12`, the GI50 in the assay with HOP-62 NSCLC is 322 µM; in the assay with LOX IMVI melanoma, 434 µM; in the assay with NCI-H522 lung, 590 µM; in the assay with TK-10 renal it was 577 µM; in the assay with OVCAR-8 ovarian it was 462 µM; in the assay on EKVX NSCLC it was > 580 µM. Also, the GI50 in the assay on T-47D breast was 675 µM; in the assay with SF-539 CNS, 300 µM; in the assay with MOLT-4 leukemia, > 1000 µM; with A498 renal, 352 µM. In addition, the TGI in the assay with HOP-62 NSCLC was > 6.71 µM and 639 µM; in the assay with LOX IMVI melanoma it was > 1000 µM; in the assay with NCI-H522 lung, > 957 µM; with TK-10 renal, > 1000 µM; with OVCAR-8 ovarian, > 1000 µM; with EKVX NSCLC it was > 1000 µM. Also, the TGI in the assay on T-47D breast was > 1000 µM; in the assay on SF-539 CNS, > 890 µM; in the assay on MOLT-4 leukemia, > 1000 µM; with A498 renal, > 25 µM and 791 µM.

Regarding `O=C(Nc1ccc(Nc2ccc3c(c2)C(=O)c2ccccc2C3=O)c2c1C(=O)c1ccccc1C2=O)c1ccccc1`, the TGI with HOP-62 NSCLC is > 100 µM; in the assay on LOX IMVI melanoma it was > 100 µM; with NCI-H522 lung it was > 42.1 µM; in the assay with TK-10 renal, > 100 µM; in the assay with OVCAR-8 ovarian it was > 100 µM; in the assay on EKVX NSCLC, > 100 µM. The TGI was > 100 µM in the assay on T-47D breast, > 100 µM with SF-539 CNS, > 69.3 µM in the assay on MOLT-4 leukemia and > 100 µM in the assay on A498 renal.

Consider `CN1CCC2(CC1)C(=O)Nc1cc(NC(=O)c3ccc4c(c3)C[C@@H]3C(C)(C)[C@H](O)[C@H](F)C[C@@]3(C)O4)ccc12`, for which the GI50 in the assay on HOP-62 NSCLC is 1.04 µM; in the assay on LOX IMVI melanoma, 0.55 µM; in the assay on NCI-H522 lung it was 10.8 µM; in the assay on TK-10 renal, 21.4 µM; with OVCAR-8 ovarian it was 26.6 µM; with EKVX NSCLC, 29.8 µM. The GI50 was 5.67 µM in the assay on T-47D breast, 0.0565 µM in the assay with SF-539 CNS, 0.0342 µM in the assay on MOLT-4 leukemia and 0.135 µM in the assay with A498 renal. Also, the TGI in the assay on HOP-62 NSCLC was 23 µM; with LOX IMVI melanoma, 12.5 µM; in the assay on NCI-H522 lung, 33.2 µM; in the assay on TK-10 renal, 76.3 µM; with OVCAR-8 ovarian, > 100 µM; with EKVX NSCLC, > 100 µM. Moreover, the TGI with T-47D breast turned out to be 28.8 µM; with SF-539 CNS, 15.9 µM; in the assay on MOLT-4 leukemia it was 1.5 µM; with A498 renal it was 1.09 µM.

As for `O=C(Nc1ccccc1/C=C/c1n[nH]c2ccccc12)c1ccccc1`, the GI50 in the assay on HOP-62 NSCLC was 2.15 µM; in the assay on LOX IMVI melanoma, 2.48 µM; in the assay on NCI-H522 lung, 9.28 µM; in the assay on TK-10 renal it was 4.85 µM; in the assay with OVCAR-8 ovarian, 3.95 µM; in the assay with EKVX NSCLC, 1.34 µM. Also, the GI50 was 3.77 µM in the assay with T-47D breast, 4.26 µM with SF-539 CNS, 7.27 µM in the assay with MOLT-4 leukemia and 1.42 µM with A498 renal. Moreover, the TGI in the assay on HOP-62 NSCLC was determined as 6.13 µM; in the assay on LOX IMVI melanoma it was 11.4 µM; in the assay with NCI-H522 lung, 24 µM; with TK-10 renal, 16 µM; in the assay on OVCAR-8 ovarian, 14.6 µM; in the assay with EKVX NSCLC, 8.91 µM. In addition, the TGI in the assay with T-47D breast amounted to 15.8 µM; in the assay on SF-539 CNS, 14.1 µM; in the assay with MOLT-4 leukemia it was 38.2 µM; in the assay on A498 renal, 3.21 µM.

These data come from PubChem BioAssay (NCI).
